What was measured:
PI3Kβ = PI3Kβ (Homo sapiens, UniProt P42338); experiment: PI3K enzyme inhibitory activity in the cell free assay (ADP-Glo Kinase Assay), PI3K beta
PI3Kγ = PI3Kγ (Homo sapiens, UniProt P48736); experiment: PI3K enzyme inhibitory activity in the cell free assay (ADP-Glo Kinase Assay), PI3K gamma
PI3Kδ = PI3Kδ (Homo sapiens, UniProt O00329); experiment: PI3K enzyme inhibitory activity in the cell free assay (ADP-Glo Kinase Assay), PI3K delta
PI3Kα = PI3Kα (Homo sapiens, UniProt P42336); experiment: PI3K enzyme inhibitory activity in the cell free assay (ADP-Glo Kinase Assay), PI3K alpha
Chain of PI3Kα (P42336 whole entry): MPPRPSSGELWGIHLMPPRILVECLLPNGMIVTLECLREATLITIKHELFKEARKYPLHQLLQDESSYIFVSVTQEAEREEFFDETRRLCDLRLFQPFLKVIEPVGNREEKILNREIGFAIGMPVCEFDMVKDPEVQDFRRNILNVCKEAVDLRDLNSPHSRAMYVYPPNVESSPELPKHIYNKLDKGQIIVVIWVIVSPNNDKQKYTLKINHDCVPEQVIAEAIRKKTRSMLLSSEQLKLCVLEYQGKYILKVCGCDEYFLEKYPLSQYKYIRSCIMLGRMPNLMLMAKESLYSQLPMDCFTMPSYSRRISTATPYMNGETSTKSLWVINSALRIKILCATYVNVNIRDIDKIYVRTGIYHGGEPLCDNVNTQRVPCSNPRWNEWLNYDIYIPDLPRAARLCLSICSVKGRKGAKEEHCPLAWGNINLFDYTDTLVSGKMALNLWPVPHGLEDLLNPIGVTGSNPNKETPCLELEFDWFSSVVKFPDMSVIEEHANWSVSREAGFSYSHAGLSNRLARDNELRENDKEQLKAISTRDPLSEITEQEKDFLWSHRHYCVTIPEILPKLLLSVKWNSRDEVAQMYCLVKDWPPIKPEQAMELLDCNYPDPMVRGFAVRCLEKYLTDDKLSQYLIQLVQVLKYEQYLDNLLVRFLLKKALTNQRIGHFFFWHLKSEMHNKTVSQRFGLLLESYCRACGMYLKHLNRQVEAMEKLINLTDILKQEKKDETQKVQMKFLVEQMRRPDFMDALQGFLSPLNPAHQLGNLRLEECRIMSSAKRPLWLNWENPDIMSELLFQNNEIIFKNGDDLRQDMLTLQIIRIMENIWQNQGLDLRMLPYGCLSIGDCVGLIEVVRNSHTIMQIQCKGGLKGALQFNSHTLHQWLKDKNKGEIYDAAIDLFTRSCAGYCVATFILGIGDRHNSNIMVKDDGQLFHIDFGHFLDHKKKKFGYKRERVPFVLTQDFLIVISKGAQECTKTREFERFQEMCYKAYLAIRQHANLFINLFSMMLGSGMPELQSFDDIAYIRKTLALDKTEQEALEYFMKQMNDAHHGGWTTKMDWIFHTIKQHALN
Chain of PI3Kα (P27986 whole entry partner): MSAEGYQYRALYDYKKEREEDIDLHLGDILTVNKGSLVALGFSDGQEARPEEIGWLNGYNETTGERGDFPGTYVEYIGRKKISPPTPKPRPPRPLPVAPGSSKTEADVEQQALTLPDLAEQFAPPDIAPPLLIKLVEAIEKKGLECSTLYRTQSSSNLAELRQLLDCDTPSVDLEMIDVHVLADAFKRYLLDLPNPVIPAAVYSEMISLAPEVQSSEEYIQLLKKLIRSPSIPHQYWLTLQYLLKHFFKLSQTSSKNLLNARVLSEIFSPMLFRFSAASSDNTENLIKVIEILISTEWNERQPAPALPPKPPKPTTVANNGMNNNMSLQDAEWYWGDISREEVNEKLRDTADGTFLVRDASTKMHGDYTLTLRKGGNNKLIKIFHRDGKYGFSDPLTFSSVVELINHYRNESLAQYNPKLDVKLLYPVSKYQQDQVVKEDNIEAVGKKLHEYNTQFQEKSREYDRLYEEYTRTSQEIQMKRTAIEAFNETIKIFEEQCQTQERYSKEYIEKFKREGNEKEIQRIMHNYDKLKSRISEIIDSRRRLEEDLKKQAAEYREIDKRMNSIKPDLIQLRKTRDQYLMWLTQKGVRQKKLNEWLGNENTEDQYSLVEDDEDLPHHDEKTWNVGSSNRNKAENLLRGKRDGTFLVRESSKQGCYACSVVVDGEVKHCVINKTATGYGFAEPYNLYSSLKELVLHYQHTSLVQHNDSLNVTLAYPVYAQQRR

Chain of PI3Kβ (P42338 whole entry): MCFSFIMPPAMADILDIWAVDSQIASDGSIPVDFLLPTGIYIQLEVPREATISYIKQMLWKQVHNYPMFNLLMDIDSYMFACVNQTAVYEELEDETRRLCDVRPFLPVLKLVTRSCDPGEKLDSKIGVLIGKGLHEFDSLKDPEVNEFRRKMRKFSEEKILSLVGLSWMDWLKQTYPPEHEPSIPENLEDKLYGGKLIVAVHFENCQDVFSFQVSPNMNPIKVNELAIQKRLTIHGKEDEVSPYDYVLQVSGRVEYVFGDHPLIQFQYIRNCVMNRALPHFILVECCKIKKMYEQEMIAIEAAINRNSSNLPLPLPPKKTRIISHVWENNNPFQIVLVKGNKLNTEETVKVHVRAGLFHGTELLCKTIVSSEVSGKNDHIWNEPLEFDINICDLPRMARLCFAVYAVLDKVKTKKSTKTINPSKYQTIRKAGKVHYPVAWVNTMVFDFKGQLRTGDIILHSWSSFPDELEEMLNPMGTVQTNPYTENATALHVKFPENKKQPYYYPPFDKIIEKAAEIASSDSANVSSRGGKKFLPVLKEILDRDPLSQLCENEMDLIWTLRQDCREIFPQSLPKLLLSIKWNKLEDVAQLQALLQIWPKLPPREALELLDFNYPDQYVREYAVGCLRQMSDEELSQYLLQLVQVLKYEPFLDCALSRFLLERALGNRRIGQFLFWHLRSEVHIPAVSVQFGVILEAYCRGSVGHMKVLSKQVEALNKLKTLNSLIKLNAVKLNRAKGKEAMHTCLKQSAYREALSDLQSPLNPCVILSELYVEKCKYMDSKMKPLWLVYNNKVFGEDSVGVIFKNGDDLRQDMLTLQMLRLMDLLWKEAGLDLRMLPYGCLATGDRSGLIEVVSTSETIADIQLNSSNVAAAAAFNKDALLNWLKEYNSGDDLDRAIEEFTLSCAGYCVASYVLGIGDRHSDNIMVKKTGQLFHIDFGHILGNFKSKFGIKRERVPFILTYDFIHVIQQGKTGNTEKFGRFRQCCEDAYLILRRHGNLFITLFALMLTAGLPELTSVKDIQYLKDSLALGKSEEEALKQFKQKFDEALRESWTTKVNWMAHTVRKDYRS
Chain of PI3Kβ (P27986 whole entry partner): as the sequence (P27986 whole entry partner) above
Chain of PI3Kγ (P48736 whole entry): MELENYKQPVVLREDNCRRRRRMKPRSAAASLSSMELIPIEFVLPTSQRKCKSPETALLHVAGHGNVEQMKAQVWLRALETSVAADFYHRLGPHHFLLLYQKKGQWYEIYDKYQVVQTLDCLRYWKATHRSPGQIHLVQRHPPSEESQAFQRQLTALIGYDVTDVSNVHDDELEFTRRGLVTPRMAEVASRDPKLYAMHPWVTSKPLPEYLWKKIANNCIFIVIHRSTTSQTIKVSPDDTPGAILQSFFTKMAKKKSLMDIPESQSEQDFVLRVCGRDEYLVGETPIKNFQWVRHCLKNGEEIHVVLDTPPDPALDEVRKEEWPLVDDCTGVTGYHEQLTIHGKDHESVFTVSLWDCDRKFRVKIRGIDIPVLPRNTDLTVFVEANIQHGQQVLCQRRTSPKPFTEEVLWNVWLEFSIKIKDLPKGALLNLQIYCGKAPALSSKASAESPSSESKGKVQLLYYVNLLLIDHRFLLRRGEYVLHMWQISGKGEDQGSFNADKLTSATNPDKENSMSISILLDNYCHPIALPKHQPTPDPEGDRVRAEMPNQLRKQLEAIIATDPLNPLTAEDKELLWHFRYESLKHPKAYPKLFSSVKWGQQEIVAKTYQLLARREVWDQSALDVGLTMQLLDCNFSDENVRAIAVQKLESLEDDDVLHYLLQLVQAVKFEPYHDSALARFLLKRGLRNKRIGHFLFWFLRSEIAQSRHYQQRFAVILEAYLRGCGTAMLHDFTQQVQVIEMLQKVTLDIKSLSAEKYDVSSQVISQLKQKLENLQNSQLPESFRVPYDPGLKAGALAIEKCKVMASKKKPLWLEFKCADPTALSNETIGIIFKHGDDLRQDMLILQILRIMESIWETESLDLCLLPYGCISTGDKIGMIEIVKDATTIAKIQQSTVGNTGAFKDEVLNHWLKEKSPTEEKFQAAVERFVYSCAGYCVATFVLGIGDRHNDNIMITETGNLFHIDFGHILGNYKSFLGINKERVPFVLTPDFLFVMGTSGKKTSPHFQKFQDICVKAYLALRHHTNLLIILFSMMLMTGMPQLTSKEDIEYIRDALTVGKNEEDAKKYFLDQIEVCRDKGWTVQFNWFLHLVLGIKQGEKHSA
Chain of PI3Kδ (O00329 whole entry): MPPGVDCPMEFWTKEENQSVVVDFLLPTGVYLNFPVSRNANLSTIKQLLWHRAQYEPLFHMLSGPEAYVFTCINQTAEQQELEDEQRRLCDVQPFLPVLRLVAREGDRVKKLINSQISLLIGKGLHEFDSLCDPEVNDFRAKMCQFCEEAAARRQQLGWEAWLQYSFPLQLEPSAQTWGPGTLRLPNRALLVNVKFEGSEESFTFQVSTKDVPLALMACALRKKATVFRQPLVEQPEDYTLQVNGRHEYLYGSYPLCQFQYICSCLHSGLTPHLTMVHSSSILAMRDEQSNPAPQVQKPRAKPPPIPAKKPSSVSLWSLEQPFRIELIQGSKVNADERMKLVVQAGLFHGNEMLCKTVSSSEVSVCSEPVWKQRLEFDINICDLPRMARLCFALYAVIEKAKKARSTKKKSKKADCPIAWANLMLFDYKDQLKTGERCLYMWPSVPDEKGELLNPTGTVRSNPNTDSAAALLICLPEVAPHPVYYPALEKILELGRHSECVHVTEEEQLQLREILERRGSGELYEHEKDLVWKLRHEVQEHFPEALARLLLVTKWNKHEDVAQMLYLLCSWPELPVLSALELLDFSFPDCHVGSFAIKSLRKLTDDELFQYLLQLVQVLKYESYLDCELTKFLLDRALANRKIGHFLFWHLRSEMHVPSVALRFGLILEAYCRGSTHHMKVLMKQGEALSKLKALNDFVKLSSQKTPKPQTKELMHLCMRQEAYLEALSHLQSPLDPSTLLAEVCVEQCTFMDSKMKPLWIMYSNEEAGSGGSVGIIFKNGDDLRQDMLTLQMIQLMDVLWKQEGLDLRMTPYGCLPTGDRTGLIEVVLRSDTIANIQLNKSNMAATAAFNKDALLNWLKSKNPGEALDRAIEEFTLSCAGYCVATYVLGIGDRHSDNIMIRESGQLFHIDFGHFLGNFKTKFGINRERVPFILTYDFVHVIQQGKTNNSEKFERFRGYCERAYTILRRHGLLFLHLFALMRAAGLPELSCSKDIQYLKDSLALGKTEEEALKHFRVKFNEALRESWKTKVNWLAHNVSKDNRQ
Chain of PI3Kδ (P27986 whole entry partner): as the sequence (P27986 whole entry partner) above

| SMILES | IC50 (PI3Kβ) [nM] | IC50 (PI3Kγ) [nM] | IC50 (PI3Kδ) [nM] | IC50 (PI3Kα) [nM] |
| --- | --- | --- | --- | --- |
| CC(c1cc(=O)n(-c2ccccc2)nc1-c1ccccc1)n1nc(-c2cc(O)cc(F)c2)c2c(N)ncnc21 (centres unmarked) [Example 5, 5-{1-[4-amino-3-(3-fluoro-5-hydroxyphenyl)-1H-pyrazolo[3,4-d]pyrimidin-1-yl]ethyl}-2,6-diphenyl-2,3-dihydropyridazin-3-one] | 10 to 1000 | 10 to 1000 | 10 to 1000 | > 1000 |
| CC(c1cc(=O)n(Cc2ccccn2)nc1-c1ccccc1)n1nc(-c2cc(O)cc(F)c2)c2c(N)ncnc21 (centres unmarked) [Example 6, 5-{1-[4-amino-3-(3-fluoro-5-hydroxyphenyl)-1H-pyrazolo[3,4-d]pyrimidin-1-yl]ethyl}-6-phenyl-2-(pyridin-2-ylmethyl)-2,3-dihydropyridazin-3-one] | 10 to 1000 | > 1000 | 10 to 1000 | > 1000 |
| CC(c1cnn(C)c(=O)c1)n1nc(-c2cc(O)cc(F)c2)c2c(N)ncnc21 (centres unmarked) [Example 9, 5-{1-[4-amino-3-(3-fluoro-5-hydroxyphenyl)-1H-pyrazolo[3,4-d]pyrimidin-1-yl]ethyl}-2-methyl-2,3-dihydropyridazin-3-one] | 10 to 1000 | 10 to 1000 | < 10 | 10 to 1000 |
| CC(c1cnn(C)c(=O)c1-c1ccccc1)n1nc(-c2cc(O)cc(F)c2)c2c(N)ncnc21 (centres unmarked) [Example 12, 5-{1-[4-amino-3-(3-fluoro-5-hydroxyphenyl)-1H-pyrazolo[3,4-d]pyrimidin-1-yl]ethyl}-2-methyl-4-phenyl-2,3-dihydropyridazin-3-one] | 10 to 1000 | 10 to 1000 | < 10 | > 1000 |
| CC(c1cnn(-c2ccccc2)c(=O)c1-c1ccccc1)n1nc(-c2cc(O)cc(F)c2)c2c(N)ncnc21 (centres unmarked) [Example 13, 5-{1-[4-amino-3-(3-fluoro-5-hydroxyphenyl)-1H-pyrazolo[3,4-d]pyrimidin-1-yl]ethyl}-2,4-diphenyl-2,3-dihydropyridazin-3-one] | 10 to 1000 | 10 to 1000 | 10 to 1000 | 10 to 1000 |
| CC(c1cnn(CCN2CCOCC2)c(=O)c1-c1ccccc1)n1nc(-c2cc(O)cc(F)c2)c2c(N)ncnc21 (centres unmarked) [Example 14, 5-{1-[4-amino-3-(3-fluoro-5-hydroxyphenyl)-1H-pyrazolo[3,4-d]pyrimidin-1-yl]ethyl}-2-[2-(morpholin-4-yl)ethyl]-4-phenyl-2,3-dihydropyridazin-3-one] | > 1000 | > 1000 | < 10 | > 1000 |
| CC(c1cnn(-c2cccnc2)c(=O)c1-c1ccccc1)n1nc(-c2cc(O)cc(F)c2)c2c(N)ncnc21 (centres unmarked) [Example 15, 5-{1-[4-amino-3-(3-fluoro-5-hydroxyphenyl)-1H-pyrazolo[3,4-d]pyrimidin-1-yl]ethyl}-4-phenyl-2-(pyridin-3-yl)-2,3-dihydropyridazin-3-one] | 10 to 1000 | 10 to 1000 | < 10 | > 1000 |
| Nc1ncnc2c1c(-c1cc(O)cc(F)c1)nn2Cc1cnn(Cc2ccccc2)c(=O)c1 [Example 18, 5-{[4-amino-3-(3-fluoro-5-hydroxyphenyl)-1H-pyrazolo[3,4-d]pyrimidin-1-yl]methyl}-2-benzyl-2,3-dihydropyridazin-3-one] | 10 to 1000 | 10 to 1000 | < 10 | 10 to 1000 |
| CC(Nc1ncnc(N)c1C#N)c1cc(=O)n(Cc2ccccc2)nc1-c1ccccc1 (centres unmarked) [Example 19, 4-amino-6-{[1-(1-benzyl-6-oxo-3-phenyl-1,6-dihydropyridazin-4-yl)ethyl]amino}pyrimidine-5-carbonitrile] | > 1000 | > 1000 | > 1000 | > 1000 |
| CC(Nc1ncnc(N)c1C#N)c1cc(=O)n(C)nc1-c1ccccc1 (centres unmarked) [Example 20, 4-amino-6-(1-(1-methyl-6-oxo-3-phenyl-1,6-dihydropyridazin-4-yl)ethylamino)pyrimidine-5-carbonitrile] | > 1000 | > 1000 | 10 to 1000 | > 1000 |
| CC(Nc1ncnc(N)c1C#N)c1cc(=O)n(C(C)C)nc1-c1ccccc1 (centres unmarked) [Example 21, 4-amino-6-({1-[6-oxo-3-phenyl-1-(propan-2-yl)-1,6-dihydropyridazin-4-yl]ethyl}amino)pyrimidine-5-carbonitrile] | > 1000 | > 1000 | > 1000 | > 1000 |
| CC(Nc1ncnc(N)c1C#N)c1cc(=O)n(CC2CC2)nc1-c1ccccc1 (centres unmarked) [Example 22, 4-amino-6-({1-[1-(cyclopropylmethyl)-6-oxo-3-phenyl-1,6-dihydropyridazin-4-yl]ethyl}amino)pyrimidine-5-carbonitrile] | > 1000 | > 1000 | > 1000 | > 1000 |
| CC(Nc1ncnc(N)c1C#N)c1cc(=O)n(-c2ccccc2)nc1-c1ccccc1 (centres unmarked) [Example 23, 4-amino-6-{[1-(6-oxo-1,3-diphenyl-1,6-dihydropyridazin-4-yl)ethyl]amino}pyrimidine-5-carbonitrile] | > 1000 | > 1000 | > 1000 | > 1000 |
| CC(Nc1ncnc2[nH]cnc12)c1cc(=O)n(Cc2ccccc2)nc1-c1ccccc1 (centres unmarked) [Example 24, 2-benzyl-6-phenyl-5-{1-[(9H-purin-6-yl)amino]ethyl}-2,3-dihydropyridazin-3-one] | > 1000 | > 1000 | > 1000 | > 1000 |

More lines, now with the values ahead:

| IC50 (PI3Kβ) [nM] | IC50 (PI3Kγ) [nM] | IC50 (PI3Kδ) [nM] | IC50 (PI3Kα) [nM] | SMILES |
| --- | --- | --- | --- | --- |
| 10 to 1000 | > 1000 | 10 to 1000 | > 1000 | CC(c1cc(=O)n(Cc2ccccc2)nc1-c1ccccc1)n1nc(-c2cc(O)cc(F)c2)c2c(N)ncnc21 (centres unmarked) [Example 1, 5-{1-[4-amino-3-(3-fluoro-5-hydroxyphenyl)-1H-pyrazolo[3,4-d]pyrimidin-1-yl]ethyl}-2-benzyl-6-phenyl-2,3-dihydropyridazin-3-one] |
| 10 to 1000 | 10 to 1000 | 10 to 1000 | > 1000 | CC(c1cc(=O)n(C)nc1-c1ccccc1)n1nc(-c2cc(O)cc(F)c2)c2c(N)ncnc21 (centres unmarked) [Example 2, 5-{1-[4-amino-3-(3-fluoro-5-hydroxyphenyl)-1H-pyrazolo[3,4-d]pyrimidin-1-yl]ethyl}-2-methyl-6-phenyl-2,3-dihydropyridazin-3-one] |
| 10 to 1000 | > 1000 | 10 to 1000 | > 1000 | CC(C)n1nc(-c2ccccc2)c(C(C)n2nc(-c3cc(O)cc(F)c3)c3c(N)ncnc32)cc1=O (centres unmarked) [Example 3, 5-{1-[4-amino-3-(3-fluoro-5-hydroxyphenyl)-1H-pyrazolo[3,4-d]pyrimidin-1-yl]ethyl}-6-phenyl-2-(propan-2-yl)-2,3-dihydropyridazin-3-one] |
| 10 to 1000 | > 1000 | 10 to 1000 | > 1000 | CC(c1cc(=O)n(CC2CC2)nc1-c1ccccc1)n1nc(-c2cc(O)cc(F)c2)c2c(N)ncnc21 (centres unmarked) [Example 4, 5-{1-[4-amino-3-(3-fluoro-5-hydroxyphenyl)-1H-pyrazolo[3,4-d]pyrimidin-1-yl]ethyl}-2-(cyclopropylmethyl)-6-phenyl-2,3-dihydropyridazin-3-one] |
| < 10 | 10 to 1000 | < 10 | 10 to 1000 | CC(c1cnn(Cc2ccccc2)c(=O)c1)n1nc(-c2cc(O)cc(F)c2)c2c(N)ncnc21 (centres unmarked) [Example 7, 5-{1-[4-amino-3-(3-fluoro-5-hydroxyphenyl)-1H-pyrazolo[3,4-d]pyrimidin-1-yl]ethyl}-2-benzyl-2,3-dihydropyridazin-3-one] |
| < 10 | 10 to 1000 | < 10 | 10 to 1000 | CC(c1cnn(-c2ccccc2)c(=O)c1)n1nc(-c2cc(O)cc(F)c2)c2c(N)ncnc21 (centres unmarked) [Example 8, 5-{1-[4-amino-3-(3-fluoro-5-hydroxyphenyl)-1H-pyrazolo[3,4-d]pyrimidin-1-yl]ethyl}-2-phenyl-2,3-dihydropyridazin-3-one] |
